Laboratory results as given in ChEMBL document CHEMBL4265897, “Discovery of benzothiazole amides as potent antimycobacterial agents” (Bioorg Med Chem Lett, 2018).
Values after ≈ are worked out from the molar mass of the structure shown.

Key:
[1] = system: Mycobacteroides abscessus; assay: Antimycobacterial activity against Mycobacterium massiliense 119 by CLSI method; type: functional, Mycobacterium abscessus subsp. massiliense
[2] = system: Mycobacterium intracellulare; assay: Antimycobacterial activity against Mycobacterium intracellulare 1956 by CLSI method; type: functional
[3] = system: Mycobacterium avium; assay: Antimycobacterial activity against Mycobacterium avium 101 by CLSI method; type: functional
[4] = system: Mycobacterium tuberculosis; assay: Antimycobacterial activity against Mycobacterium tuberculosis H37Rv MC2 6206 by CLSI method; type: functional
[5] = system: Mycobacteroides abscessus; assay: Antimycobacterial activity against Mycobacterium abscessus 79 by CLSI method; type: functional
[6] = system: Mycolicibacterium fortuitum; assay: Antimycobacterial activity against Mycobacterium fortuitum 41 by CLSI method; type: functional
[7] = system: Mycobacteroides abscessus; assay: Antimycobacterial activity against Mycobacterium abscessus 1 by CLSI method; type: functional
[8] = system: Mycobacteroides abscessus; assay: Antimycobacterial activity against Mycobacterium abscessus 103 by CLSI method; type: functional
[9] = system: Mycobacteroides abscessus; assay: Antimycobacterial activity against Mycobacterium abscessus 21 by CLSI method; type: functional
[10] = system: Mycolicibacterium peregrinum; assay: Antimycobacterial activity against Mycobacterium peregrinum ATCC 700686 by CLSI method; type: functional
[11] = system: Mycobacteroides chelonae; assay: Antimycobacterial activity against Mycobacterium chelonae 93 by CLSI method; type: functional
[12] = system: Mycobacteroides abscessus; assay: Antimycobacterial activity against Mycobacterium abscessus ATCC 19977 by CLSI method; type: functional

Row | SMILES | MIC [1] [µg/mL] | MIC [2] [µg/mL] | MIC [3] [µg/mL] | MIC [4] [µg/mL] | MIC [5] [µg/mL] | MIC [6] [µg/mL] | MIC [7] [µg/mL] | MIC [8] [µg/mL] | MIC [9] [µg/mL] | MIC [10] [µg/mL] | MIC [11] [µg/mL] | MIC [12] [µg/mL]
1 | CC1CC(C(=O)Nc2nc3ccc(OC(F)F)cc3s2)CC(C)(C)C1 (stereo not drawn) | 0.5 (≈ 1.36 µM) | 8 (≈ 21.7 µM) | > 64 | 2 (≈ 5.43 µM) | 0.5 (≈ 1.36 µM) | 0.5 (≈ 1.36 µM) | 1 (≈ 2.71 µM) | 0.5 (≈ 1.36 µM) | 0.5 (≈ 1.36 µM) | 0.12 (≈ 0.326 µM) | 0.25 (≈ 0.679 µM) | –
2 | O=C(Nc1nc2ccc(C(F)(F)F)cc2s1)C1CC2CCC1C2 (stereo not drawn) | – | 32 (≈ 94 µM) | 32 (≈ 94 µM) | – | – | – | – | – | – | – | – | > 64
3 | CC1CC(C(=O)Nc2nc3ccc(C(F)(F)F)cc3s2)CC(C)(C)C1 (stereo not drawn) | 2 (≈ 5.4 µM) | > 64 | > 64 | – | 0.5 (≈ 1.35 µM) | 0.5 (≈ 1.35 µM) | 0.5 (≈ 1.35 µM) | – | 0.5 (≈ 1.35 µM) | 0.25 (≈ 0.675 µM) | 0.25 (≈ 0.675 µM) | –
4 | CC1CC(C(=O)Nc2nc3ccccc3s2)CC(C)(C)C1 (stereo not drawn) | 2 (≈ 6.61 µM) | 8 (≈ 26.5 µM) | 8 (≈ 26.5 µM) | 8 (≈ 26.5 µM) | 1 (≈ 3.31 µM) | 1 (≈ 3.31 µM) | 2 (≈ 6.61 µM) | 1 (≈ 3.31 µM) | 2 (≈ 6.61 µM) | 0.5 (≈ 1.65 µM) | 1 (≈ 3.31 µM) | –
5 | CC1CCCC(C(=O)Nc2nc3ccc(C(F)(F)F)cc3s2)C1 (stereo not drawn) | 2 (≈ 5.84 µM) | 16 (≈ 46.7 µM) | 16 (≈ 46.7 µM) | 16 (≈ 46.7 µM) | 2 (≈ 5.84 µM) | 2 (≈ 5.84 µM) | 4 (≈ 11.7 µM) | – | 2 (≈ 5.84 µM) | 1 (≈ 2.92 µM) | 1 (≈ 2.92 µM) | –
6 | CC12CCCC(C(=O)Nc3nc4c(F)cc(F)cc4s3)(CCC1)C2 | 0.12 (≈ 0.342 µM) | 4 (≈ 11.4 µM) | 4 (≈ 11.4 µM) | – | 0.12 (≈ 0.342 µM) | 0.25 (≈ 0.713 µM) | – | 0.25 (≈ 0.713 µM) | 0.12 (≈ 0.342 µM) | 0.06 (≈ 0.171 µM) | 0.12 (≈ 0.342 µM) | –
7 | CC1(C(=O)Nc2nc3ccc(OC(F)(F)F)cc3s2)CCCCC1 | 0.12 (≈ 0.335 µM) | 4 (≈ 11.2 µM) | 8 (≈ 22.3 µM) | 4 (≈ 11.2 µM) | 0.12 (≈ 0.335 µM) | 2 (≈ 5.58 µM) | – | 0.12 (≈ 0.335 µM) | 0.12 (≈ 0.335 µM) | 0.5 (≈ 1.4 µM) | 0.25 (≈ 0.698 µM) | –
8 | CC12CCCC(C(=O)Nc3nc4cc(F)cc(F)c4s3)(CCC1)C2 | 0.25 (≈ 0.713 µM) | 4 (≈ 11.4 µM) | 4 (≈ 11.4 µM) | – | 0.06 (≈ 0.171 µM) | 0.25 (≈ 0.713 µM) | 0.12 (≈ 0.342 µM) | 0.06 (≈ 0.171 µM) | 0.06 (≈ 0.171 µM) | 0.06 (≈ 0.171 µM) | 0.06 (≈ 0.171 µM) | –
